# Experiments:
# [1] = test system: Musca domestica; experiment: Toxicity in male house fly assessed as sterility; format: organism-based; conditions: in vivo
# [2] = test system: Musca domestica; experiment: Toxicity in mixed sex house flies assessed as sterility at 1% administered in sugar relative to control; format: organism-based; conditions: in vivo, po
structure (smiles),measurement,setting,value
C=CCN(C1=CCCCC1)P(=O)(N1CC1C)N1CC1C (configuration not stated),Activity,[1],Non-toxic
same,Activity,[2],82%
